SMILES strings stand for the structures.

In experiment [1] the target is L-lactate dehydrogenase B chain (Homo sapiens) (UniProt P07195). Kind of experiment: Inhibition of human LDHB assessed as reduction in lactate production using pyruvate as substrate at 10 uM in presence of NADH by spectrophotometric analysis relative to control.
In experiment [2] the target is T1, L-lactate dehydrogenase A chain (Homo sapiens, UniProt P00338). Kind of experiment: Non-competitive inhibition of human LDHA assessed as reduction in lactate production using pyruvate as substrate in presence of NADH by Lineweaver-Burk plot analysis.
In experiment [3] the target is T1, L-lactate dehydrogenase A chain. Kind of experiment: Inhibition of human LDHA assessed as reduction in lactate production using pyruvate as substrate at 10 uM in presence of NADH by spectrophotometric analysis relative to control.

L-lactate dehydrogenase B chain (Homo sapiens), sequence (P07195 2-334 limits assumed): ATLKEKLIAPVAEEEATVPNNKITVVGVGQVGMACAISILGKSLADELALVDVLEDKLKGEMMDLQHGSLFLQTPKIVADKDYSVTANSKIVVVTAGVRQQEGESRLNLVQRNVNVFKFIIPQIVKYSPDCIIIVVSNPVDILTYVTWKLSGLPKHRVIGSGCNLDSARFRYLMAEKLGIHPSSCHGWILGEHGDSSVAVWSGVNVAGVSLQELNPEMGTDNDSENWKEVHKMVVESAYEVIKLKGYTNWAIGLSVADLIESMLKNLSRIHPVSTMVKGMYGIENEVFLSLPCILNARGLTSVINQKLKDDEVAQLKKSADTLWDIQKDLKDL

A word on the inhibition: it is the drop in the measured response relative to a control, in per cent. With `CCCc1cc2c(c(O)c1C(=O)O)[C@@H]1C=C(C)CC[C@H]1C(C)(C)O2`, in experiment [1], the inhibition was under 50%. As a reminder, the Ki is the dissociation constant of the complex between target and ligand, obtained from inhibition or displacement. Regarding `CCCCCc1cc2c(c(O)c1C(=O)O)[C@@H]1C=C(C)CC[C@H]1C(C)(C)O2` [DELTA9-TETRAHYDROCANNABINOLIC ACID A], the values for the inhibition in experiment [1] and in experiment [3] were under 50% and over 50%, respectively. Besides, in experiment [2], the inhibitory constant (Ki) stood at 6.5 µM. As to `CC(C)=CCC/C(C)=C/Cc1c(O)cc(C)cc1O`, the inhibition in experiment [1] was under 50%. With `CCCc1cc2c(c(O)c1C(=O)O)C=CC(C)(CCC=C(C)C)O2` (centres undefined), the inhibition in experiment [1] is under 50%. Still for that read-out and setting: for `C=C(C)[C@@H]1CCC(C)=C[C@H]1c1c(O)cc(CCCCC)c(C(=O)O)c1O` the value was under 50%. Turning to `C=C(C)[C@@H]1CCC(C)=C[C@H]1c1c(O)cc(CCCCC)cc1O` [CANNABIDIOL], the inhibition in experiment [1] was under 50%. Besides, in experiment [2], the Ki was 24 µM. On to `CCCCCc1cc(O)c2c(c1)OC(C)(CCC=C(C)C)C=C2` (centres undefined) [CANNABICHROMENE], for which the inhibition in experiment [1] was under 50%; in experiment [3], over 50%. Further, the Ki in experiment [2] came to 8.5 µM.

As for `C=C(C)[C@@H]1CCC(C)=C[C@H]1c1c(O)cc(CCC)c(C(=O)O)c1O`, in experiment [1], the inhibition is under 50%. The same measure, in the same setting: the result for `CCCc1cc(O)c(C/C=C(\C)CCC=C(C)C)c(O)c1` reads under 50%.

Consider `CCCCCc1cc2c(c(O)c1C(=O)O)-c1cc(C)ccc1C(C)(C)O2`, for which the inhibition in experiment [1] was under 50%. In the case of `CCCCCc1cc(O)c(C/C=C(\C)CCC=C(C)C)c(O)c1`, in experiment [1], the inhibition was under 50%.

As for `CCCCCc1cc2c(c(O)c1C(=O)O)C=CC(C)(CCC=C(C)C)O2` (centres undefined), the inhibition in experiment [1] was under 50%. The same measure, in the same setting: the result for `CCCCCc1cc(O)c(C/C=C(\C)CCC=C(C)C)c(O)c1C(=O)O` reads under 50%. As for `CCCCCc1cc(O)c2c(c1)OC(C)(C)[C@@H]1CCC(C)=C[C@@H]21` [DRONABINOL], the inhibition in experiment [1] was under 50%. In addition, in experiment [2], the Ki worked out at 14 µM. `CCCc1cc(O)c2c(c1)OC(C)(C)[C@@H]1CCC(C)=C[C@@H]21`: the inhibition in experiment [1] was under 50%.

As to `CCCc1cc(O)c(C/C=C(\C)CCC=C(C)C)c(O)c1C(=O)O`, the inhibition in experiment [1] was under 50%. As to `CCCCCc1cc(O)c2c(c1)OC(C)(C)c1ccc(C)cc1-2`, the inhibition in experiment [1] is under 50%. The same measure, in the same setting: for `C=C(C)[C@@H]1CCC(C)=C[C@H]1c1c(O)cc(CCC)cc1O` the value was under 50%.

The values above are taken from ChEMBL document CHEMBL4842310, “Cannabichromene and Δ9-Tetrahydrocannabinolic Acid Identified as Lactate Dehydrogenase-A Inhibitors by in Silico and in Vitro Screening” (J Nat Prod, 2021).
